Data set [1] relates to C57BL/6 mice. Nature of the data set: Animal experiment: in vivo bioluminescence after i.v. lipid nanoparticles encapsulated with luciferase mRNA. The following applies: compound 20 vs. D1, compound 46 vs. D2. Here is the method: The delivery effect and safety of nanoparticles encapsulated with luciferase mRNA (Trilink, L-7202) in mice were evaluated. The test mice were SPF-grade C57BL/6 mice, female, 6-8 weeks old, weighing 18-22 g, and were purchased from SPF (Beijing) Biotechnology Co., Ltd. All animals were acclimatized for more than 7 days prior to the experiment, and had free access to food and water during the experiment. The conditions include alternating light and dark for 12/12 h, the indoor temperature of 20-26° C. and the humidity of 40-70%. The mice were randomly grouped. […] The anesthetized mice were placed in IVIS for fluorescence imaging, and data acquisition and analysis were performed on the concentrated distribution area of fluorescence.
The in vivo delivery efficiency of lipid nanoparticle carriers was expressed as the mean values of fluorescence intensity and total photon count in different animals within the same subject group, as shown in Table 5. Higher values of fluorescence intensity and total photon count indicate higher in vivo delivery efficiency of this mRNA fragment by lipid nanoparticles. […]

Data set [2] in a line: Particle size and PDI of lipid nanoparticles by dynamic light scattering. The format is physicochemical. The following applies: LNP 50:38.5:10:1.5, N/P 6, luciferase mRNA. Here is the method:
Lipid nanoparticles were prepared by (1) dissolving and mixing ionizable lipid compounds, cholesterol, phospholipids and polyethylene glycolated lipids in ethanol at (molar percentages) 50%, 38.5%, 10% and 1.5%, respectively; (2) dissolving the mRNA active ingredient in 25 mM sodium acetate solution (pH=4.5); (3) using an automated high-throughput microfluidic system to mix the organic phase containing the lipid mixture and the aqueous phase containing the mRNA component in the flow ratio range of 1:1 to 1:4 at a mixing speed of 10 mL/min to 18 mL/min; (4) the prepared lipid nanoparticles (N/P ratio of 6) were diluted with phosphate buffer solution and the nanoparticle solutions were ultrafiltered to the original preparation volume using ultrafiltration tubes (purchased from Millipore) with a cut-off molecular weight of 30 kDa; and (5) the obtained nanoparticles were filtered through a sterile 0.2 μm filter membrane and then stored in a sealed glass vial at low temperature.
The particle size and particle size dispersity index (PDI) of the prepared lipid nanoparticles were measured using a Zetasizer Pro (purchased from Malvern Instruments Ltd) and a DynaPro NanoStar (purchased from Wyatt) dynamic light scattering instrument. The degree of RNA encapsulation by lipid nanoparticles was characterized by the Encapsulation Efficiency %, which reflects the degree of binding of lipid nanoparticles to RNA fragments. This parameter was measured by the method of Quant-it™ RiboGreen RNA Assay (purchased from Invitrogen). Lipid nanoparticle samples were diluted in TE buffer (10 mM Tris-HCl, 1 mM EDTA, pH=7.5). A portion of the sample solution was removed, to which 0.5% Triton (Triton X-100) was added, and then allowed to stand at 37° C. for 30 minutes. Immediately after the addition of RIBOGREEN® reaction solution, the fluorescence values were read on a Varioskan LUX multifunctional microplate reader (purchased from Thermofisher) at 485 nm for absorption and 528 nm for emission to give the encapsulation efficiency values.

SMILES strings stand for the structures.

As to `CCCCCCCCCOC(=O)C(C)(C)CCCCCC(CCCCCC(C)(C)C(=O)OCC(CCCCC)CCCCCCC)OC(=O)CCCN(C)C` (centres unmarked) [Compound 46], in data set [1], the “in vivo delivery efficiency compared with the molecule without tetramethyl” value is on record as “significantly increased in vivo delivery efficiency”. In addition, the “Particle size dispersity (PDI)” value in data set [2] is recorded as 0.09.

For the origin of these results see US12642768B2, “Lipid nanoparticles” (Beijing Jitai Life Sciences Ltd, priority 2022, dated 2026).
